As a reminder, the residual activity is the signal under treatment as a percentage of the control signal.

Among the targets are CDK1 CCNA2 (human) (UniProt P06493+P20248); CDK1 CCNB1 (human) (UniProt P06493+P14635); CDK2 CCNA2 (human) (UniProt P24941+P20248); CDK2 CCNE1 (human) (UniProt P24941+P24864); CDK3 CCNE1 (human) (UniProt Q00526+P24864); CDK4 CCND1 (human) (UniProt P24385+P11802); CDK4 CCND3 (human) (UniProt P30281+P11802); CDK6 CCND1 (human) (UniProt Q00534+P24385); CDK6 CCND3 (human) (UniProt P30281+Q00534); CDK7 CCNH MNAT1 (human) (UniProt P50613+P51948+P51946); CDK9 CCNK (human) (UniProt O75909+P50750); CDK9 CCNT1 (human) (UniProt P50750+O60563); DYRK1B (human) (UniProt Q9Y463); LTK (human) (UniProt P29376); MAP3K7 TAB1 (human) (UniProt O43318+Q15750); PRKCH (human) (UniProt P24723); STK33 (human) (UniProt Q9BYT3); CDK5 CDK5R1 p25 (human) (UniProt Q00535+Q15078); CDK5 CDK5R1 p35 (human) (UniProt Q00535+Q15078).

What all share (test): radiometric filter-binding kinase assay, Kinase HotSpot
Conditions in all cases: compound 0.5 µM; ATP 10 µM

DYRK1B (human), sequence (Q9Y463 whole entry, looked up): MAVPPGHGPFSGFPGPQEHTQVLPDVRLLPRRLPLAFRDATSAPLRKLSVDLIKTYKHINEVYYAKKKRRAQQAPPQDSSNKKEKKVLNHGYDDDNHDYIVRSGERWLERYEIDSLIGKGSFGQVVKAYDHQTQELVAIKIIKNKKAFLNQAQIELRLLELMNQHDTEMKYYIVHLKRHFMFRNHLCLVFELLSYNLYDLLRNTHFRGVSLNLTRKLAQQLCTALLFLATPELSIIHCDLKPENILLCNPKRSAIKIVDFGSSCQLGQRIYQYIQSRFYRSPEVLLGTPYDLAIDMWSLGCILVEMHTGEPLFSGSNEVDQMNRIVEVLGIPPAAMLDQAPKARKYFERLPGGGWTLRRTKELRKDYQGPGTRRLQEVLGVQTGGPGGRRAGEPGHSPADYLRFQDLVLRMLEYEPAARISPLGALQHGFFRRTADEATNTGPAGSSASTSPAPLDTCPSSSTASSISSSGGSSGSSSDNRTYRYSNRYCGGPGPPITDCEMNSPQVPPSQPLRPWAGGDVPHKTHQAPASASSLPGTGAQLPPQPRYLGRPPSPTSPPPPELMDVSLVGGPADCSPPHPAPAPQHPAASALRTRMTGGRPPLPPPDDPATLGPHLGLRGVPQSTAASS
CDK6 CCND3 (human), sequence (P30281 whole entry, looked up): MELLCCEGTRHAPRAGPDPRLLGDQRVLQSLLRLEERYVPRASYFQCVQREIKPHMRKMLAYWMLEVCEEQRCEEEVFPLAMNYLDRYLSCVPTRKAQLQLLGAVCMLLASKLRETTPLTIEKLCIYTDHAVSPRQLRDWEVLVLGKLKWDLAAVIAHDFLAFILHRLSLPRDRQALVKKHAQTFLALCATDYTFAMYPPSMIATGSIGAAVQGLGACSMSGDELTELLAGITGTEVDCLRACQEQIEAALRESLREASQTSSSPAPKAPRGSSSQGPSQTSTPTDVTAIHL
CDK6 CCND3 (human), sequence (Q00534 whole entry, looked up): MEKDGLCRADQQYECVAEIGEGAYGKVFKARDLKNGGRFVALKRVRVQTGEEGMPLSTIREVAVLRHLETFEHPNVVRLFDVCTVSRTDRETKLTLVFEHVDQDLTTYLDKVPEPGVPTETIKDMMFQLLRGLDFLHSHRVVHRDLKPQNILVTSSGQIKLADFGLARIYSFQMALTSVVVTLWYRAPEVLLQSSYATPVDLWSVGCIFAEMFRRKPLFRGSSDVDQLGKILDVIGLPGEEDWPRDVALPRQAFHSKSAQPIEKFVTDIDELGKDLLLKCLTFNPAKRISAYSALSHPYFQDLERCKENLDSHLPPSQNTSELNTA
PRKCH (human), sequence (P24723 whole entry, looked up): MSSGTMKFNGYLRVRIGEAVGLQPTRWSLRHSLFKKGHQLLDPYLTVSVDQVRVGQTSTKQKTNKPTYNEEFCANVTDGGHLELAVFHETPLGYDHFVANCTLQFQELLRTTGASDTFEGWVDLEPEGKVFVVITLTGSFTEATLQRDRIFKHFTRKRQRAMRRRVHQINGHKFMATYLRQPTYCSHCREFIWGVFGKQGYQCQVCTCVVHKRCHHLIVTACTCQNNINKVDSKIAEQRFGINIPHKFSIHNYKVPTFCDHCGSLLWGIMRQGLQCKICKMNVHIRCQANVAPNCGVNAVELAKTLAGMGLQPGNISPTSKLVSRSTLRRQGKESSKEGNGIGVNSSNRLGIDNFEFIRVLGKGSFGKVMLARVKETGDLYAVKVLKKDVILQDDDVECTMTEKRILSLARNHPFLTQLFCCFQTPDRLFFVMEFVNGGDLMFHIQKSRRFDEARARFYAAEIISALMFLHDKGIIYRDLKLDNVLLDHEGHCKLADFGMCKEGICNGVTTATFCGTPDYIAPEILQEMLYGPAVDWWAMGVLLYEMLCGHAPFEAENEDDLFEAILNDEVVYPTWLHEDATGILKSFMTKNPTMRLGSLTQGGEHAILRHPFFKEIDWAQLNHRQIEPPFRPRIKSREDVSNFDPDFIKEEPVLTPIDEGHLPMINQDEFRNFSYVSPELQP
CDK2 CCNA2 (human), sequence (P20248 whole entry, looked up, other chains not shown): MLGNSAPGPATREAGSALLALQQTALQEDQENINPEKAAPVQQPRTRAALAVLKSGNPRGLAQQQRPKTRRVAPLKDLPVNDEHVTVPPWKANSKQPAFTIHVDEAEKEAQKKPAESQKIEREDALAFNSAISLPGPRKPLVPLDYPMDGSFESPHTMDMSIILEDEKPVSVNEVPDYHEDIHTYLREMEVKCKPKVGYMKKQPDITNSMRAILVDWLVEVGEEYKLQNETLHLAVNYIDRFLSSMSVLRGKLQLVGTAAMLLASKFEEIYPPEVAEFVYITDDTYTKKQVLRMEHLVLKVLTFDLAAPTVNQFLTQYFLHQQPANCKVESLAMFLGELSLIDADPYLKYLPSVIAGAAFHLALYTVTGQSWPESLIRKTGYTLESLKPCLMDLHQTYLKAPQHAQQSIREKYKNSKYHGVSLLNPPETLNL
STK33 (human), sequence (Q9BYT3 whole entry, looked up): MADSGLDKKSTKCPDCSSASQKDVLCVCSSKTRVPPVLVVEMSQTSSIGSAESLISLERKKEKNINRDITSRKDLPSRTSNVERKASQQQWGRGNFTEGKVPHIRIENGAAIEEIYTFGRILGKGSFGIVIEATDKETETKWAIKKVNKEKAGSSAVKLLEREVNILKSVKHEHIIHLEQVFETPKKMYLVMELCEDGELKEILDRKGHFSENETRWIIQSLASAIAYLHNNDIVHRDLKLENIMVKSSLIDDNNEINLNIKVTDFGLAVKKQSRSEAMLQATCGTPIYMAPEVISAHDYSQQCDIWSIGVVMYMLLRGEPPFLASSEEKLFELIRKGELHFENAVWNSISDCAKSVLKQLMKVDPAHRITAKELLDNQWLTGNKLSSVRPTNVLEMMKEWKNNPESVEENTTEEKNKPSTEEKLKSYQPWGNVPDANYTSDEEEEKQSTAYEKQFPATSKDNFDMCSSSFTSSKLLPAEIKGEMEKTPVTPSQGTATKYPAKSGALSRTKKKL
MAP3K7 TAB1 (human), sequence (O43318 whole entry, looked up): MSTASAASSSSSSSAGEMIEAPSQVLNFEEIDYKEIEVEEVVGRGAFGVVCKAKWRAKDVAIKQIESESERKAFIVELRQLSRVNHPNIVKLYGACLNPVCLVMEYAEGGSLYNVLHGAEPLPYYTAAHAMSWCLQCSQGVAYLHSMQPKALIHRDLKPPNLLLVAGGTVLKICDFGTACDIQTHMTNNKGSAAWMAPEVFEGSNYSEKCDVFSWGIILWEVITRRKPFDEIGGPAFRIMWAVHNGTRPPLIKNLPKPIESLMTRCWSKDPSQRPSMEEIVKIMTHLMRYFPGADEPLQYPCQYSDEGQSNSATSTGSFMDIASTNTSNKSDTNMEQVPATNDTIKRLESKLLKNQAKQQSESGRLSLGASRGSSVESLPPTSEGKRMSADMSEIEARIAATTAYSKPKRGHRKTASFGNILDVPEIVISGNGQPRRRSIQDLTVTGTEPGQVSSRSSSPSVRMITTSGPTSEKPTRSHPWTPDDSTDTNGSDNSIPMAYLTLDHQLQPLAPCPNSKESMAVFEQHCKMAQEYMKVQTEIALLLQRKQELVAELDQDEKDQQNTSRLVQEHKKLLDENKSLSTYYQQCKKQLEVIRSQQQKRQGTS
MAP3K7 TAB1 (human), sequence (Q15750 whole entry, looked up): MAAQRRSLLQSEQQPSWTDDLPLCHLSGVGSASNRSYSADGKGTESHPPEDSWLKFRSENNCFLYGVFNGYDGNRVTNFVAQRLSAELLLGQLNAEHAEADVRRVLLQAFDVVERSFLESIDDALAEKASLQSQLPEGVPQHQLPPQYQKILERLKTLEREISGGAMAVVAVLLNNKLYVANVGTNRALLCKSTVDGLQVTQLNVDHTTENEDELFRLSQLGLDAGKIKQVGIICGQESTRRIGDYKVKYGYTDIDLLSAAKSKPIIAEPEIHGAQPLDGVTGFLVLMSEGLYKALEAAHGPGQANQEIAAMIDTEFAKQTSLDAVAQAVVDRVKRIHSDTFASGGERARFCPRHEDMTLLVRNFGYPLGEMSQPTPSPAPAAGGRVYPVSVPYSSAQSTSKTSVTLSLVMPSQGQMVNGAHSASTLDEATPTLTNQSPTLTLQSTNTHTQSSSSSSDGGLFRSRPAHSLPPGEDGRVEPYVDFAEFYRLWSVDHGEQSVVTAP
CDK6 CCND1 (human), sequence (P24385 whole entry, looked up): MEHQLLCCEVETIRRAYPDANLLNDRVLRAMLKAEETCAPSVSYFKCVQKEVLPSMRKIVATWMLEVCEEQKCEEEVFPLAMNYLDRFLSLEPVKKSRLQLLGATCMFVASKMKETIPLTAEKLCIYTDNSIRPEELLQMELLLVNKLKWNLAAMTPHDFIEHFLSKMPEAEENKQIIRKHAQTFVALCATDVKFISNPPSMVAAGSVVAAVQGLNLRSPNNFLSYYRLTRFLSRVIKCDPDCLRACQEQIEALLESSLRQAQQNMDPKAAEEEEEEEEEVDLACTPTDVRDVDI
CDK6 CCND1 (human), sequence (Q00534 whole entry, looked up): as the sequence (Q00534 whole entry, looked up) above
CDK4 CCND3 (human), sequence (P11802 whole entry, looked up): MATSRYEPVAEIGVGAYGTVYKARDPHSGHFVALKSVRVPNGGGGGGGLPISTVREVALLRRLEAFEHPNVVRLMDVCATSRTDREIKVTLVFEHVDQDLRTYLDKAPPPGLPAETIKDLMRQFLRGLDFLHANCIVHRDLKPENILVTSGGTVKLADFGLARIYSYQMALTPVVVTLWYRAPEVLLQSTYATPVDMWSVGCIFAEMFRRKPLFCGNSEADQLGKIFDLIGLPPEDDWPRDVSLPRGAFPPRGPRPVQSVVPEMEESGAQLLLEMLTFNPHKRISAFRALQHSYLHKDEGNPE
CDK4 CCND3 (human), sequence (P30281 whole entry, looked up): as the sequence (P30281 whole entry, looked up) above
CDK4 CCND1 (human), sequence (P11802 whole entry, looked up): as the sequence (P11802 whole entry, looked up) above
CDK4 CCND1 (human), sequence (P24385 whole entry, looked up): as the sequence (P24385 whole entry, looked up) above

Take `CN1CCN(c2ccc3nc(-c4c(N)c5c(F)cccc5[nH]c4=O)[nH]c3c2)CC1`: the residual activity on CDK1 CCNA2 (human) amounted to 93.6%; at CDK1 CCNB1 (human) it was 90.9%; at CDK2 CCNA2 (human) it was 91%; at CDK2 CCNE1 (human) it was 92.3%; at CDK3 CCNE1 (human), 92.3%; on CDK4 CCND1 (human) it was 79.5%. Besides, the residual activity came out at 89.6% on CDK4 CCND3 (human); 74.6% on CDK6 CCND1 (human); 31.9% at CDK6 CCND3 (human); 104% on CDK7 CCNH MNAT1 (human); 91.1% on CDK9 CCNK (human); 97.7% at CDK9 CCNT1 (human). Also, the residual activity at DYRK1B (human) came out at 87.9%; at LTK (human), 92.5%; at MAP3K7 TAB1 (human) it was 19.3%; on PRKCH (human) it was 103%; at STK33 (human), 60.7%.
As for `NCCNc1ncc(C(N)=O)c(Nc2cccc(C(F)(F)F)c2)n1`, the residual activity at CDK1 CCNA2 (human) was 88.3%; at CDK1 CCNB1 (human), 81.7%; at CDK2 CCNA2 (human), 97.6%; on CDK2 CCNE1 (human), 89%; at CDK3 CCNE1 (human), 95.3%; on CDK4 CCND1 (human), 108%. Moreover, the residual activity came out at 94.8% on CDK4 CCND3 (human); 92.4% on CDK5 CDK5R1 p25 (human); 84.2% on CDK5 CDK5R1 p35 (human); 94.6% on CDK6 CCND1 (human); 100% at CDK6 CCND3 (human); 98.5% on CDK7 CCNH MNAT1 (human). The residual activity was 95.6% at CDK9 CCNK (human); 82% at CDK9 CCNT1 (human); 85.9% on DYRK1B (human); 84.8% at LTK (human); 71.2% at MAP3K7 TAB1 (human); 81.9% on STK33 (human).
With `O=C1c2ccccc2-c2n[nH]c3cccc1c23`, the residual activity at CDK1 CCNA2 (human) was found to be 85.6%; on CDK1 CCNB1 (human), 63.4%; at CDK2 CCNA2 (human), 76.1%; at CDK2 CCNE1 (human), 79.5%; at CDK3 CCNE1 (human), 94.3%; at CDK4 CCND1 (human), 96.3%. Further, the residual activity turned out to be 104% at CDK4 CCND3 (human); 88.6% at CDK6 CCND1 (human); 88.6% at CDK6 CCND3 (human); 94.7% on CDK7 CCNH MNAT1 (human); 96% on CDK9 CCNK (human); 99.3% at CDK9 CCNT1 (human). Further, the residual activity is 65.7% at DYRK1B (human); 77.8% on LTK (human); 59.3% at MAP3K7 TAB1 (human); 87.6% on PRKCH (human); 47.7% on STK33 (human).
For `Cc1cn(-c2cc(NC(=O)c3ccc(C)c(Nc4nccc(-c5cccnc5)n4)c3)cc(C(F)(F)F)c2)cn1`, the residual activity on CDK1 CCNA2 (human) amounted to 99.7%; at CDK1 CCNB1 (human), 97.8%; at CDK2 CCNA2 (human), 95.5%; on CDK2 CCNE1 (human), 98.9%; on CDK3 CCNE1 (human), 95.2%; on CDK4 CCND1 (human), 97%. Also, the residual activity was 108% at CDK4 CCND3 (human); 91.7% on CDK5 CDK5R1 p25 (human); 105% on CDK5 CDK5R1 p35 (human); 97.1% on CDK6 CCND1 (human); 128% at CDK6 CCND3 (human); 109% on CDK7 CCNH MNAT1 (human). Besides, the residual activity on CDK9 CCNK (human) turned out to be 97.9%; at CDK9 CCNT1 (human), 94.7%; at DYRK1B (human) it was 92.8%; on LTK (human), 101%; on MAP3K7 TAB1 (human), 89.2%; on PRKCH (human), 121%. Also, the residual activity at STK33 (human) came to 87.1%.

The record behind these values is the kinase profiling compilation of Christmann-Franck et al. (2016).
